Test results reported in PMC6934184, “Selective DNA-PKcs inhibition extends the therapeutic index of localized radiotherapy and chemotherapy” (The Journal of Clinical Investigation, 2019).

Biological target: T1, STK39 (STLK3) (Homo sapiens, UniProt Q9UEW8)
T1 construct: purchased Thermo Fisher Scientific (Life Technologies) SelectScreen
Experiment: SelectScreen LanthaScreen
Format: binding
Conditions: read-out: % displacement
How it was run: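 SelectScreen broad panel; activity (Z'LYTE, Adapta) plus binding formats. ATP: Km app for CSF1R Z'LYTE; 10 for CAMK1 Adapta. Readout = % per kinase.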

For CN(C(=O)CN1CCOCC1)c1ccc2sc3c(-c4cccc5c(=O)cc(N6CC7CCC(C6)O7)oc45)cccc3c2c1 [NU5455], the inhibition at 1 µM was 16.2%.
